We go through 1 molecule from ChEMBL document CHEMBL1140641, “Novel ebselen-porphyrin conjugates: synthesis and nucleic acid interaction study” (Bioorg Med Chem Lett, 2007).

Holding throughout (type): nucleic-acid assay
Common to all, as to set-up: scale not given: the % may be the effect or the level left
Common to all, as to conditions: Escherichia coli

For experiment [1], the system named is Nucleic Acid. The experiment can be described thus: DNA photocleavage activity assessed as pBluescript form II levels at 1 uM by plasmid DNA relaxation assay.
Experiment [2] deals with Nucleic Acid. Description: DNA photocleavage activity assessed as pBluescript form II levels at 5 uM by plasmid DNA relaxation assay.
Experiment [3] deals with Nucleic Acid. The experiment can be described thus: DNA photocleavage activity assessed as pBluescript form II levels at 20 uM by plasmid DNA relaxation assay.
The subject of experiment [4] is Nucleic Acid. The experiment can be described thus: DNA photocleavage activity assessed as pBluescript form II levels at 10 uM by plasmid DNA relaxation assay.

Each structure is given as a SMILES string.

As for `O=c1c2ccccc2[se]n1-c1ccc(-c2c3nc(c(-c4ccccc4)c4ccc([nH]4)c(-c4ccccc4)c4nc(c(-c5ccccc5)c5ccc2[nH]5)C=C4)C=C3)cc1`, the Activity in the experiment on Nucleic Acid [1] was 12%; with Nucleic Acid [2], 16%; in the experiment on Nucleic Acid [3], 21%; in the experiment on Nucleic Acid [4] it was 18%.
